Measurements from patent US20100184946A1, “Preparation of Fine Particles” (priority 2007, published 2010).

Assay: Particle form by X-ray powder diffraction (XRPD)
Type: physicochemical
Conditions: starting material before the process; product after freeze drying
Method: The physical form of the paclitaxel particles was measured using X-ray powder diffraction method (“XRPD”) before the process (i.e. the starting material) and again after the product of the process had been freeze dried.

physical form (XRPD): crystal structure ordering
SMILES: CC(=O)O[C@H]1C(=O)[C@@]2(C)[C@H]([C@H](OC(=O)c3ccccc3)[C@]3(O)C[C@H](OC(=O)[C@H](O)[C@@H](NC(=O)c4ccccc4)c4ccccc4)C(C)=C1C3(C)C)[C@]1(OC(C)=O)CO[C@@H]1C[C@@H]2O [paclitaxel]
